# From PMC12486440, “Design, synthesis, and in silico studies of new benzofuran–pyrazole hybrids as multi-kinase inhibitors with potential antiproliferative activity” (RSC Advances, 2025)
# Assays:
# Leukemia subpanel = test: NCI 60 subpanel summary; format: cell-based, human
# B-Raf (V600E) = B-Raf (V600E) (Homo sapiens, UniProt P15056, V600E); test: B-Raf kinase inhibitory assay (Kinase-Glo Max); format: biochemical
# Experimental: B-Raf Kinase inhibitory assay
# All samples and controls were tested in
# c-Met = c-Met (Homo sapiens, UniProt P08581); test: c-Met kinase inhibitory assay (HTRF); format: biochemical
# MCF-7 cancer cells = test: Cell cycle analysis (PI flow cytometry); format: cell-based, human; conditions: GI50 concentration 2.75 μM, 48 h
# Experimental: More details are presented in the SI.
# Given that 3d has emerged as a well-balanced active compound that functions as both an anticancer agent and a multi-targeting protein kinase suppressor, it was of interest to gain a deeper understanding of how 3d inhibits the growth of cancer cells. A propidium iodide (PI) staining experiment was performed in this study to look at its effect on cell cycle distribution and apoptosis activation.[81,82]
# This blocked cell cycle passage at the G0–G1 stage can stop cells from dividing and growing, which is in line with that shown by other tests about the ability of compound 3d to stop cell division and growth (Fig. 3). […]
# minute reaction, 50 μl of Kinase-Glo Max reagent was added to each well. […] 10) Luminescence was measured using the microplate reader. […]
# The protocol of the experiment depends on the dilution of the enzyme, substrate, ATP, and inhibitors in kinase buffer. […] Then, luminescence (integration time 0.5–1 second) was recorded according to the manufacturer’s instructions. […]
# Further exploration of the cytotoxic activity of compound 3d was performed using propidium iodide (PI) flow cytomertric analysis to measure the extent of PI that binds to DNA of dead cells with permeable plasma membranes to determine cell cycle status in tissue culture quantitate cell death at all cell phases. […]
# HepG-2 cancer cells = test: Annexin V-FITC/PI apoptosis detection; format: cell-based, human; conditions: 24 h
# Experimental: The annexin V-FITC apoptosis detection kit (BD Biosciences) was used to quantify the percentage of cells undergoing apoptosis and detect the modes of cell death, either by apoptosis or necrosis, in the presence or absence of the active compound 3d. The experiment was carried out according to the manufacturer's protocol. More details are presented in the SI.
# Flow cytometry assay employing annexin V-FITC and propidium iodide double labeling was used to further examine the apoptotic impact of compound 3d.[81,82] […] Additionally, 3d enhanced the late apoptotic effect from 0.17% in the control cells to 15.07% in the treated cells. Moreover, compound 3d promoted necrosis by 4.32% in the 3d-treated cells in comparison with 1.4% in the untreated ones (Table 5 and Fig. 4). These findings support the cytotoxic action of compound 3d on HepG-2 cells. In addition, it implies that its cytotoxic impact is not only due to it initiating programmed cell death pathways in an orderly manner but also its ability to effectively complete the apoptotic process, which results in the fragmentation and removal of cancer cells. […]
# 5.2.4. Annexin-V FTIC apoptotic study
# Estimation of fractional DNA content (aka sub-G1 assay) is a widely used assay to determine apoptosis. Cleavage of genomic DNA into smaller fragments (180–200 bp lengths) is a hallmark for apoptosis in numerous cells. PI stained cells will stain less intensely and show a peak below the G1 peak (Sub-G1). In this work, flow cytometer with Annexin V-fluorescein isothiocyanate/propidium iodide FITC/PI double staining apoptosis detection kit (K101, Biovision) was used to study apoptosis of MCF-7 cells treated with compound 3d. Cells were incubated, collected by centrifugation, re-suspended in 500 μL of 1X binding buffer. Annexin V-FITC (5 μL) and PI (5 μL) was added and incubation was continued for additional 5 min in the dark at room temperature. Annexin V-FITC binding was analyzed by flow cytometry using FITC signal detector (FL1) and PI staining by FL2 phycoerythrin emission signal detector [75].
# CCRF-CEM = conditions: Homo sapiens, CCRF-CEM
# SK-OV-3 = conditions: single dose 10 μM; ovarian carcinoma
# BT-549 = conditions: Homo sapiens, BT-549
# [1] = single dose 10 μM, non-small lung carcinoma
# [2] = single dose 10 μM, colon cancer
# [3] = single dose 10 μM, renal carcinoma
# B-Raf (V600E), sequence (P15056 whole entry V600E): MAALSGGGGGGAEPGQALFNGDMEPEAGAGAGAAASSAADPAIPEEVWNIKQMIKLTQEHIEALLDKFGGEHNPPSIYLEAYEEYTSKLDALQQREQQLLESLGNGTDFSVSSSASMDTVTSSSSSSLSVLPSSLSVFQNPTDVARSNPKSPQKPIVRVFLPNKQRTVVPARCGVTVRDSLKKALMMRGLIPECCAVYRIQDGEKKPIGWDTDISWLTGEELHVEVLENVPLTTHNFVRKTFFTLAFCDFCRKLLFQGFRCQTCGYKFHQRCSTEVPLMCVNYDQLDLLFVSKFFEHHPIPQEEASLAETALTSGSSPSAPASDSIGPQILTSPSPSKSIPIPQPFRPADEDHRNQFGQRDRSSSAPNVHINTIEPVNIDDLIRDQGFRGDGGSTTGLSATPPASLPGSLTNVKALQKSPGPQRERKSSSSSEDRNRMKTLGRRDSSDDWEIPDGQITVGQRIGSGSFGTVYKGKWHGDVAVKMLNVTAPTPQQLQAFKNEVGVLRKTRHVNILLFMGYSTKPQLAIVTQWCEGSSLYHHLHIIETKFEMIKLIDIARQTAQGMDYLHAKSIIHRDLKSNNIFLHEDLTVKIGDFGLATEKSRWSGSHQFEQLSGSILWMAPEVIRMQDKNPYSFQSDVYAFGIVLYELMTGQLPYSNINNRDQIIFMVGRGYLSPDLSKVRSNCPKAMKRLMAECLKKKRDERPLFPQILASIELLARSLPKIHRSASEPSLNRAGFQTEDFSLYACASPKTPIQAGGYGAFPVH
# c-Met, sequence (P08581 25-1390): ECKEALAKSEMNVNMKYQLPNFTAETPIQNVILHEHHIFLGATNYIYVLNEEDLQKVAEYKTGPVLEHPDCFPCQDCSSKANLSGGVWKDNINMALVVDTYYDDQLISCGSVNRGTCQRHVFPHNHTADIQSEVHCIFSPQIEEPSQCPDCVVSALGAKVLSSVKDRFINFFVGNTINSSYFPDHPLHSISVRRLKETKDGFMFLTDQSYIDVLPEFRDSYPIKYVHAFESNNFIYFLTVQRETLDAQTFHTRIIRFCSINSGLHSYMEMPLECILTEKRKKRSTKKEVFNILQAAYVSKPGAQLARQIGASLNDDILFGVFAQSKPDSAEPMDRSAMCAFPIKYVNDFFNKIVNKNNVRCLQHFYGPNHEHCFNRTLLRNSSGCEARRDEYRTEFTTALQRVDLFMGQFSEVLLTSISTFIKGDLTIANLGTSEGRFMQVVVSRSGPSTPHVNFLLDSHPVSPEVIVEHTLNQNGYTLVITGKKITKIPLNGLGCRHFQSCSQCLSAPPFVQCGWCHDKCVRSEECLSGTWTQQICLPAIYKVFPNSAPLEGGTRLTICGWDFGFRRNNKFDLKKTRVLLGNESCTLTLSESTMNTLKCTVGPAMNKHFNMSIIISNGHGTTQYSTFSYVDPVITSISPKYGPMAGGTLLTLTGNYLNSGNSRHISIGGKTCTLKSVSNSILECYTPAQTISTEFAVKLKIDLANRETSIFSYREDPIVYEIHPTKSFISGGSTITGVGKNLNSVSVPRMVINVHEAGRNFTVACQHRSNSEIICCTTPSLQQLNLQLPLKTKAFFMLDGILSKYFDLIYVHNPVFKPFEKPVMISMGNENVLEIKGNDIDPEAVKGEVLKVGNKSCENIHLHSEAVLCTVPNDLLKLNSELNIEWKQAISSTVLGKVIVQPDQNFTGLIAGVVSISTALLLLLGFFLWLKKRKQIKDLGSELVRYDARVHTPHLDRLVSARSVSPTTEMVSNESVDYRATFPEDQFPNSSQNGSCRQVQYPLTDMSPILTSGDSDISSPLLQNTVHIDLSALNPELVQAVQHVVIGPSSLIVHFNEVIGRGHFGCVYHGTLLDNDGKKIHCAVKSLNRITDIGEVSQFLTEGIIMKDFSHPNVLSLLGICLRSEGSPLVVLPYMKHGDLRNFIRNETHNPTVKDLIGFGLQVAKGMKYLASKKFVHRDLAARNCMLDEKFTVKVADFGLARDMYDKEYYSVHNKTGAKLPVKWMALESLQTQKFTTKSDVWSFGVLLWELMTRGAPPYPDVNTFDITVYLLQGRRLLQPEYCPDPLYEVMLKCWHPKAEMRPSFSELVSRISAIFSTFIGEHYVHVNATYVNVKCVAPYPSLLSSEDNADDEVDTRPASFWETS
compound,measurement,setting,value
"c1ccc(-n2cc(C3CC(c4nc5ccccc5[nH]4)=NN3)c(-c3cc4ccccc4o3)n2)cc1 (centres unmarked) [3d, 3-(Benzofuran-2-yl)-4-(3-(1H-benzo[d]imidazol-2-yl)-4,5-dihydro-1H-pyrazol-5-yl)-1-phenyl-1H-pyrazole]",GI50,"Leukemia subpanel; Homo sapiens, subpanel mean graph midpoint, read-out: MG-MID (GI50)",3.23 µM
same,Selectivity index,Leukemia subpanel; full panel MG-MID / subpanel MG-MID,1.30
same,IC50,B-Raf (V600E),0.175 µM
same,"times less sensitive, B-Raf (V600E), than to vemurafenib",B-Raf (V600E); ratio of IC50 values,2.8
same,IC50,c-Met,0.911 µM
same,cell percentage in the G2/M stage,MCF-7 cancer cells; control […],15.9%
same,percentage of cells in the G0–G1 phase,MCF-7 cancer cells; untreated 48.39%,61.03%
same,Late apoptosis,HepG-2 cancer cells; control 0.17,15.07%
same,Early apoptosis,HepG-2 cancer cells; control 0.52,24.66%
same,Necrosis,HepG-2 cancer cells; control 1.4,4.32%
same,"Apoptosis, total",HepG-2 cancer cells; control 2.09,44.05%
same,GI50,CCRF-CEM,3.11 µM
same,GI50,"EKVX; Homo sapiens, EKVX",2.69 µM
same,GI%,EKVX; [1],78.25%
same,GI50,"HOP-62; Homo sapiens, HOP-62",3.66 µM
same,GI%,HOP-62; [1],74.46%
same,GI50,"NCI-H23; Homo sapiens, NCI-H23",3.69 µM
same,GI%,NCI-H23; [1],78.78%
same,GI50,"HCT-116; Homo sapiens, HCT-116",5.46 µM
same,GI%,HCT-116; [2],76.76%
same,GI50,"KM12; Homo sapiens, KM12",5.55 µM
same,GI%,KM12; [2],91.86%
same,GI50,"SF-295; Homo sapiens, SF-295",2.59 µM
same,GI%,"SF-295; single dose 10 μM, CNS cancer",84.73%
same,GI50,"OVCAR-4; Homo sapiens, OVCAR-4",3.51 µM
same,GI%,"OVCAR-4; single dose 10 μM, ovarian carcinoma",66.52%
same,GI%,SK-OV-3,62.21%
same,GI50,"ACHN; Homo sapiens, ACHN",3.11 µM
same,GI%,ACHN; [3],92.45%
same,GI50,"SN12C; Homo sapiens, SN12C",3.42 µM
same,GI%,SN12C; [3],88.17%
same,GI50,BT-549,3.85 µM
